Laboratory results as given in patent US20090170195A1, “CURCUMIN-HYALURONAN COMPOUNDS” (KENT STATE UNIVERSITY, priority 2007, published 2009).

Assays:
MCF7 (Dox resistance) = assay: MTS cytotoxicity assay, MCF7 (Dox resistance); format: cell-based; conditions: Homo sapiens, MTS cell viability
Experimental: (§1) Cytotoxicity effect of dissociable curcumin-hyaluronan complex, the curcumin-hyaluronan complex having a substantially non-acid labile covalent bond and free curcumin was detected by MTS (3-(4,5-dimethylthiazol-2yl)-5-(3-[…]-2-(4-sulfophenyl)-2H-tetrazolium) assay. The formazan color intensity was measured directly from 96 well plates in terms of absorbance at 490 nm and 630 nm using a 96-well multi-scanner (MRX Revelation; Dynex Technologies). For calculating cell viability (%) all the appropriate correction was made and the IC50 values were determined from sigmoidal fitting of the data. FIGS. 3-5 represent confocal microscopy images representing the uptake of curcumin and the dissociable complex into the C-13, NIH3T3 and RA-8001 cell lines.

C-13 = assay: MTS cytotoxicity assay, C-13; format: cell-based; conditions: Homo sapiens, C13; C-13, MTS cell viability
Experimental: as §1

NIH3T3 = assay: MTS cytotoxicity assay, NIH3T3; format: cell-based; conditions: Mus musculus; NIH3T3, MTS cell viability
Experimental: as §1

MCF7 = conditions: from Simon et al., Cancer Lett., (1998), 129, 111; cited from earlier work
RA-8001 = assay: MTS cytotoxicity assay, RA-8001; format: cell-based; conditions: Homo sapiens; RA-8001, MTS cell viability
Experimental: as §1

MDAMB231 = assay: MTS cytotoxicity assay, MDAMB231; format: cell-based; conditions: Homo sapiens, MDA-MB-231; MDAMB231, MTS cell viability
Experimental: as §1

SMILES: COc1cc(/C=C/C(=O)CC(=O)/C=C/c2ccc(O)c(OC)c2)ccc1O [Curcumin]
- IC50 (MCF7 (Dox resistance)): 27.4 ± 0.892 µM
- IC50 (C-13): 22.2 µM
- IC50 (NIH3T3): 23.9 ± 3.19 µM
- IC50 (MCF7): 15 µM
- IC50 (RA-8001): 11.1 ± 2.3 µM
- IC50 (MDAMB231): 27.5 ± 3.36 µM
